Results as given in US10899770B2, “Crystal form of ACP-196 salt and preparation method, pharmaceutical composition, and use thereof” (Hangzhou SoliPharma Co., Ltd., priority 2017, dated 2021).
Structures can show the parent of a compound that is named as a salt.

Key:
[1] = Isothermal sorption (dynamic vapor sorption), weight change with relative humidity; type: physicochemical; details: for hygroscopicity compared with amorphous ACP-196: 30 to 80% RH; for weight change (isothermal sorption plot): between 30% and 80% relative humidity
Description: Dynamic vapor sorption data and isothermal sorption data were collected on TA Instruments Q5000 TGA. Method: A sample of 1 to 10 mg was placed in a platinum pan; the weight change of the sample during the change in relative humidity from 0% to 80% to 0% was measured.

Solubility test in water = type: physicochemical; details: for solubility compared with amorphous ACP-196 (ACP-196 of Preparation Example 1): in water, Comparative Example 1; for Solubility test results / solubility: 20 mg sample, water, 25° C. water bath, water added until completely dissolved (not more than 200 mL); for solubility: 25 °C, thermodynamic from solid
Description: Solubility test: took 20 mg ACP-196 of Preparation Example 1, 20 mg ACP-196 malate Form 1 of the invention, 20 mg ACP-196 hemifumarate Form 1 of the invention, 20 mg ACP-196 maleate Form 1 of the invention, 20 mg ACP-196 phosphate Form 1 of the invention and 20 mg ACP-196 sulfate Form 1 of the invention, then placed in the beaker respectively added 1.0 mL water, stirred for 1 to 2 minutes under the condition of 25° C. water bath, observed and if not totally dissolved, added water (not more than 200 mL in total) until it's completely dissolved.

| Structure (SMILES) | hygroscopicity compared with amorphous ACP-196 [1] | solubility compared with amorphous ACP-196 (ACP-196 of Preparation Example 1) (Solubility test in water) | weight change (isothermal sorption plot) [1] | weight change (isothermal sorption plot) ([1]; listed as amorphous ACP-196) | Solubility test results (Solubility test in water) | solubility (Solubility test in water) |
| --- | --- | --- | --- | --- | --- | --- |
| CC#CC(=O)N1CCC[C@H]1c1nc(-c2ccc(C(=O)Nc3ccccn3)cc2)c2c(N)nccn12 [ACP-196 phosphate Form 1] | less hygroscopic | higher solubility |  |  |  |  |
| CC#CC(=O)N1CCC[C@H]1c1nc(-c2ccc(C(=O)Nc3ccccn3)cc2)c2c(N)nccn12 [ACP-196 sulfate Form 1] |  | higher solubility |  |  |  |  |
| CC#CC(=O)N1CCC[C@H]1c1nc(-c2ccc(C(=O)Nc3ccccn3)cc2)c2c(N)nccn12 [ACP-196] |  |  | 5.5% | 5.5% | Less than 0.1 mg/mL |  |
| CC#CC(=O)N1CCC[C@H]1c1nc(-c2ccc(C(=O)Nc3ccccn3)cc2)c2c(N)nccn12 [ACP-196 malate Form 1] |  | higher solubility |  |  | 1430 µg/mL |  |
| CC#CC(=O)N1CCC[C@H]1c1nc(-c2ccc(C(=O)Nc3ccccn3)cc2)c2c(N)nccn12.O=C(O)/C=C/C(=O)O [ACP-196 hemifumarate Form 1] | less hygroscopic | higher solubility |  |  |  | 910 µg/mL |
| CC#CC(=O)N1CCC[C@H]1c1nc(-c2ccc(C(=O)Nc3ccccn3)cc2)c2c(N)nccn12.O=C(O)/C=C\C(=O)O [ACP-196 maleate Form 1] | less hygroscopic | higher solubility |  |  |  | 1330 µg/mL |
